From BindingDB's records for doi:10.7270/Q22F7KVM (The Scripps Research Institute Molecular Screening Center, 2009)

Biological target: T1, Guanyl-specific ribonuclease T1 (Aspergillus oryzae (strain ATCC 42149 / RIB 40), UniProt P00651)
T1 sequence (P00651 whole entry): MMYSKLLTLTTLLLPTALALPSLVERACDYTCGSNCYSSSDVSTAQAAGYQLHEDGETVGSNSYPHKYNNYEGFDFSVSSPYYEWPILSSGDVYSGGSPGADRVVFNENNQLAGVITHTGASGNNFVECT
Assay: inhibition of ribonuclease T1 activity – biochemical, fluorescence polarization, 1536-well, counter-screen for TPT1 inhibitor project, dose response (AID 2167)

Cc1ccc2nc(N=NCc3ccc([N+](=O)[O-])o3)nc(-c3ccccc3)c2c1
IC50: > 55.7 µM
